# Source: patent US20090062255A1, “TUMOR-TARGETING EVALUATION METHODOLOGY AND COMPOUNDS RELATED THERETO” (THALLION PHARMACEUTICALS INC., priority 2007, published 2009)
# Several values for one entry are separate records, joined by “and”; a condition that tells them apart may be missing. Identical values can stand only once.
# Key:
# brain tumor cell lines = assay: MTT cytotoxicity, panel of brain tumor cell lines (summary); assay type: cell-based; conditions: 96 hours; read-out: IC50 values against brain tumor cell lines, range
# Method: The cytotoxic activity of Compound 1 was further evaluated using a panel of brain tumor cell lines. This study was performed in collaboration with INSERM (Grenoble, France). Tumor cells (5,000 to 10,000 cells per well depending on their doubling time) were plated in 96-well flat-bottom plates and incubated for 24 hours before treatment. Tumor cells were then incubated for 96 hours with seven different concentrations of Compound 1: […], 0.01, and 0.001 μM. The in vitro cytotoxic activity was determined by a standard MTT assay.
# PBR = biological target: T1, PBR (Rattus norvegicus, UniProt P16257); assay: In vivo PBR occupancy by PET (11C-(R)-PK11195) following IV bolus and CIV infusion
# T1 construct: from tissue; host or cells: orthotopic rat C6 glioma in Sprague-Dawley rats, in vivo
# Method: (R)-1-(2-chlorophenyl)-N-methyl-N-(1-methyl-propyl)-3-isoquinoline carboxamide (R N-desmethyl PK11195), the precursor for the radioisotope-labeled (R) —PK11195, was purchased from ABX (Radeburg, Germany). The synthesis of ^11C-(R)-PK11195 was accomplished by a modification of the method of Camsonne et al. (J. Label. Compd. Radiopharm., 21: 985-991,1984). Briefly, ^11C-methyl iodide (^11C—CH3I) was transferred by a stream of nitrogen gas at a flow rate of 10 ml/min into a reaction medium containing 1 mg or R—N-desmethyl PK11195 previously dissolved in 0.5 mL of dimethylsulfoxide (DMSO) and about 20 mg of sodium hydroxide. The reaction was initiated at room temperature, with a bubbling of the ^11C—CH3I being continued over a 5 minute period. After bubbling was complete, the reaction mixture was left standing for 5 minutes. Purification was performed by high pressure liquid chromatography (HPLC) using a reverse-phase C18 column and a methanol:ammonium formate (20 mM) (80:20) mixture and a mobile phase at a flow rate of 3 mL/min. ^11C—(R) —PK11195 was eluted at 11 minutes and obtained with a specific radioactivity of […].
# The above study was repeated but his time ECO-4601 was administered as a bolus push followed by a continuous intra-venous (CIV) infusion of ECO-4601 obtained in the steady-state condition through the second 11C-PK11195 PET scan. […]
# To determine a mean tumor binding potential (B.P.) (baseline) and the mean B.P., the simplified reference tissue method was utilized comparing the ratio of tumor to normal brain. As a result, mean tumor binding potential (B.P.) (baseline) was calculated to be 2.19±0.16 (mean±SEM) and the mean B.P. (ECO-4601) was calculated to be 0.14±0.13 (mean±SEM).
# [1] = test system: human uterine sarcoma MES-SA; assay: Growth inhibitory MTT assay, MES-SA; assay type: cell-based; conditions: 72 hours, treated over control
# Method: Growth inhibitory activity of ECO-4601 (Compound 1) and other dibenzodiazepinone analogs was evaluated on a panel of 4 human tumor cell lines: the human uterine sarcoma MES-SA and its doxorubicin-resistant P-glycoprotein over-expressing variant, MES-SA/DX5 as well as non-aggressive and highly aggressive human breast cell lines, MCF-7 and MDA-MB-231, respectively. These four cell lines were obtained from the American Type Culture Collection (Manassas, Va.) and cultured in RPMI plus 10% fetal bovine serum (FBS) and maintained at 37° C. with 5% CO2.
# Exponentially growing cells (5,000 cells per well time; cell number determined with a hemocytometer) were seeded in 96-well flat-bottom plates and allowed to grow overnight. Cells were then incubated for 72 hours with three different concentrations of ECO-4601 or analogs: 30,10, and 3 μM. The in vitro growth inhibitory activity was determined by a commercial MTT assay. All measurements were done in quadruplicate and each experiment was performed 2-3 times. The lower the value, the more cytotoxic is the compound.
# [2] = individual rats, IV bolus 30 mg/kg then CIV 5 mg/kg/hour, listed as ECO-4601
smiles,measurement,setting,value
"CC(C)=CCC/C(C)=C/CC/C(C)=C/CN1C(=O)c2cccc(O)c2Nc2c(O)cc(O)cc21 [Compound 1, 10-farnesyl-4,6,8-trihydroxy-5,10-dihydrodibenzo[b,e][1,4]diazepin-11-one]",IC50,brain tumor cell lines,1.6 to 8.9 µM
same,mean tumor binding potential (B.P.) after compound,"PBR; CIV infusion, mean±SEM, n=6",0.14±0.13
same,"reduction of PBR occupancy for 11C-(R)-PK11195 binding, average","PBR; CIV infusion, n=6",91.67%
same,% PBR occupancy,PBR; [2],100% and 30% and 50%
same,Binding Potential (ECO-4601),PBR; [2],0 (5×) and 1.81 and 0.84
same,% T/C at 10 μM,[1],78%
